Reference: patent US11136324B2, “Substituted imidazoles as apoptosis signal regulating kinase 1 inhibitors” (Jiangsu Hansoh Pharmaceutical Group Co., Ltd., priority 2017, dated 2021)
pIC50: −log10 of the molar value.

Columns and labels:
[1] = Pharmacokinetic (PK) assay in mice; assay type: in vivo; details: Balb/c male mice, single intragastric administration, 5 mg/kg, plasma; for AUC(0-t) / AUC(0-inf) / half-life / MRT / Cmax: mouse, po; for AUC(0-t): read-out: Area under curve AUC0-t; for AUC(0-inf): read-out: Area under curve AUC0-∞; for half-life: read-out: Half-life t1/2 (converted); for MRT: read-out: Mean residence time MRT; for Cmax: read-out: Plasma concentration Cmax
Description: 2. Pharmacokinetic (PK) Assay in Mice
The pharmacokinetic test of the preferred examples of the present invention in mice was carried out in Balb/c male mice (Shanghai Jiesijie Laboratory Animal Co., LTD).
Administration mode: single intragastric administration.
Administration dosage: 5 mg/10 ml/kg.
Formulation: 0.5% CMC-Na, ultrasonic dissolution.
Sampling points: 0.5, 1, 2, 4, 6, 8 and 24 hours after administration.
1) 0.1 mL of blood was taken from the orbit, placed in a K2EDTA tube, and centrifuged for 5˜20 min at room temperature at 1000˜3000×g to separate the plasma, which was then stored at −80° C.
2) 160 μL of acetonitrile was added to 40 μL of plasma sample for precipitation, and then the mixture was centrifuged for 5˜20 minutes at 500˜2000×g.
3) 100 μL, of processed supernatant was taken and analyzed by LC/MS/MS assay to determine the concentration of the test compound.
LC-MS/MS Assay: • Liquid chromatography condition: Shimadzu LC-20AD pump • Mass spectrometry condition: AB Sciex API 4000 mass spectrometer • Chromatographic column: phenomenex Gemiu 5 μm C18 50×4.6 mm • Mobile phase: solution A was 0.1% aqueous formic acid solution, and solution B was acetonitrile • Flow rate: 0.8 mL/min • Elution time: 0-3.5 minutes gradient elution
The main parameters were calculated using WinNonlin 6.1.

ASK1 kinase = ASK1 kinase (Homo sapiens (Human), UniProt Q99683); assay: ASK1 enzymatic test (TR-FRET); assay type: biochemical; details: ASK1 kinase activity
Sequence of ASK1 kinase (Q99683 whole entry): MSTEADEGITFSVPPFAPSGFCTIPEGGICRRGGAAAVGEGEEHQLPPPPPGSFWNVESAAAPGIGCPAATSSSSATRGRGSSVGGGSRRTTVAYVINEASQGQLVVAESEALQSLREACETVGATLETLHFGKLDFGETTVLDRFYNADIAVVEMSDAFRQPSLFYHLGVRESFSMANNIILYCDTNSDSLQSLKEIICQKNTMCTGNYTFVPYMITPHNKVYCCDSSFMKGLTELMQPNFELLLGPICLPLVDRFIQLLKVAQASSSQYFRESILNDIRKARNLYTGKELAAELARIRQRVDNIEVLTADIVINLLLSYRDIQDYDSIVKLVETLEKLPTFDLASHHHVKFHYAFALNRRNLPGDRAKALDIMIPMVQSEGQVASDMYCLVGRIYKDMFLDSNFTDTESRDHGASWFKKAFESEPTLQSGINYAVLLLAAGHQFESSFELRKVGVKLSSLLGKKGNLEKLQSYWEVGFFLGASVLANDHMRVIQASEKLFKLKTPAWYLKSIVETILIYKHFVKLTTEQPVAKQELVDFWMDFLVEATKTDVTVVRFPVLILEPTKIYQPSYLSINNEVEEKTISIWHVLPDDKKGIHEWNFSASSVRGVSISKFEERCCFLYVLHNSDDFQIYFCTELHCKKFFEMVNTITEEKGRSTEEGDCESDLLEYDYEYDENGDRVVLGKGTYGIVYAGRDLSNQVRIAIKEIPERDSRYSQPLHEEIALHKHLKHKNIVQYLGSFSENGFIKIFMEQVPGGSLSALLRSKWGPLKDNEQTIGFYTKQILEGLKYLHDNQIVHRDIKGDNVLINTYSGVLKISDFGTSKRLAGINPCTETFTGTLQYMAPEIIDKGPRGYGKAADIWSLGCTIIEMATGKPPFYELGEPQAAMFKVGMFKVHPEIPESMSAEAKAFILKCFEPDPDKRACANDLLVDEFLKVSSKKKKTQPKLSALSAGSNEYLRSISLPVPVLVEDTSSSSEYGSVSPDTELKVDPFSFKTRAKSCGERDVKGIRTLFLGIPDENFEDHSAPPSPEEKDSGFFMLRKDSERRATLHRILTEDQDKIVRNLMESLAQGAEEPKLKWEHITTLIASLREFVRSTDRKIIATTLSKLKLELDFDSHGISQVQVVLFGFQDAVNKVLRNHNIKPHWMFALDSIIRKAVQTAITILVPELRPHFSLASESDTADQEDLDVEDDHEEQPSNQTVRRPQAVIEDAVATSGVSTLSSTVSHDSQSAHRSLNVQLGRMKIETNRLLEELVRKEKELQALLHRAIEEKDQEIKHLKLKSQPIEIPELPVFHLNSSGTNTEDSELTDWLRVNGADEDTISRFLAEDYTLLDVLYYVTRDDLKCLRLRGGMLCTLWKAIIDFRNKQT
Description: In this test, the fluorescence-resonance energy transfer (TR-FRET) method was used to determine the inhibition effect of the test compounds on ASK1 kinase activity, and the half maximal inhibitory concentration IC50 of the compounds on ASK1 kinase activity was obtained.
1) 1˜5 μL of ASK1 enzyme solution was added to a 384-well plate, and the final concentration of the enzyme was 0.220 nM.
2) 1˜5 μL of gradient-diluted compound solution was added.
3) 1˜5 μL of a substrate mixture containing substrate polypeptides (final concentration: 100˜5000 nM) and ATP (final concentration: 100˜1000 uM) were added.
4) The mixture was incubated at room temperature for 0.5 to 5 hours.
5) 10 μL of EDTA and test solution containing labeled antibody were added, and the plate was incubated at room temperature for 2 to 24 hours.
6) The fluorescence signal value of each well was determined by a microplate reader at about 615 nm and 665 nm.
7) The inhibition rate was calculated by the fluorescence signal value.
8) The IC50 of the compound was obtained by curve fitting according to the inhibition rate at different concentrations.

[2] = system: non-alcoholic steatohepatitis mice induced by HFD (high fat diet)+CCl4; assay: Effect on serum ALT and AST levels of non-alcoholic steatohepatitis mice induced by HFD+CCl4; assay type: in vivo, C57BL/6 mice; set-up: concentration or dose not given beside the values; details: oral once a day for 28 days, versus solvent control group
From the text: 3. The effect of the compounds of the present invention on the ALT and AST levels of non-alcoholic steatohepatitis mice induced by HFD (high fat diet)+CCl4
The object of this test example is to determine whether the compounds of the present invention can down-regulate the ALT and AST levels in the serum of non-alcoholic steatohepatitis mice or not.
C57BL/6 mice were adaptively fed in a SPF (specific pathogen free) barrier for 3 to 7 days, and then fed with HFD feed with a feeding cycle of 8 weeks. At the fifth week of HFD feeding, the HFD-induced mice were randomly grouped according to body weight, and orally administrated with CCl4 twice a week for 4 weeks. At the day of modeling with CCl4, the test compounds were orally administrated once a day continuously for 28 days. The solvent control group was administrated with the corresponding solvent of the test compounds with an administration volume of 10 mL/kg. The mice were euthanized with CO2 48 hours after the last administration of CCl4, and the non-anticoagulated venous blood was collected from the heart. The whole blood was left to stand at room temperature for at least 30 minutes, and then centrifuged for 5 minutes at 4° C. at 5000 rpm to separate the serum. The serum was dispensed into two portions in 1.5 mL EP tubes, and stored at −80° C. for later use.
The ALT and AST levels in mice serum were determined using the alanine aminotransfease (ALT/GPT) kit and aspartate aminotransferase (AST/GOT) kit. The ALT (or AST) test substrate solution was preheated in a 37° C. incubator; 20 μL of substrate solution were pipetted into a 96-well plate, and 5 μL of serum were pipetted into the 96-well plate as test well. After mixing well, the plate was sealed using a sealing film, and placed into the 37° C. incubator to incubate for 30 min. The ALT (or AST) standard curve was formulated, and 25 μL of which were pipetted into the 96-well plate; 20 μL of […] were pipetted into the 96-well plate as control well; 20 μL of 2,4-dinitrophenylhydrazine solution were added to each well. After mixing well, the plate was sealed using a sealing film, and placed into the 37° C. incubator to incubate for 20 min. 200 μL of 0.4 M NaOH solution were added to each well. The plate was placed on a shaker to shake for 15 min, and then measured on the BioTek Synergy H1 instrument using OD detection program at a wavelength of 510 nm. The absolute OD value was calculated from the OD value of each well. Absolute OD value=OD value of measured well−OD value of control well. The absolute OD value was taken into the standard curve to obtain the ALT (or AST) content of the sample. Samples that exceed the standard curve range should be re-tested after diluting the serum to an appropriate concentration. Data processing: (% ALT reduction rate)=(solvent control group−test compound)/solvent control group×100%; (% AST reduction rate)=(solvent control group−test compound)/solvent control group×100%.

Compound | Peak time tmax [1] | AUC(0-t) [1] | AUC(0-inf) [1] | half-life [1] | MRT [1] | Cmax [1] | pIC50 (ASK1 kinase) | ALT(U/L) reduction rate (%) [2] | AST(U/L) reduction rate (%) [2]
Cc1cc(F)c(C(=O)Nc2cccc(-c3nnc4n3[C@@H](C)CC4)n2)cc1-n1cnc(C(C)C)c1 [Example 14, (S)-2-Fluoro-5-(4-isopropyl-1H-imidazol-1-yl)-4-methyl-N-(6-(5-methyl-6,7-dihydro-5H-pyrrolo[2,1-c][1,2,4]triazol-3-yl)pyridin-2-yl)benzamide] | 1 h | 21000 ng·h/mL | 21000 ng·h/mL | 1.3 h | 2.8 h | 6150 ng/mL | 8.05 |  | 
Cc1cc(F)c(C(=O)Nc2cccc(-c3nnc4n3CC(C)C4)n2)cc1-n1cnc(C2CC2)c1 (stereo not shown) [Example 33, 5-(4-Cyclopropyl-1H-imidazol-1-yl)-2-fluoro-4-methyl-N-(6-(6-methyl-6,7-dihydro-5H-pyrrolo[2,1-c][1,2,4]triazol-3-yl)pyridin-2-yl)benzamide] | 0.5 h | 47900 ng·h/mL | 48600 ng·h/mL | 4.7 h | 5.9 h | 5170 ng/mL | 8.14 |  | 
Cc1cc(F)c(C(=O)Nc2cccc(-c3nnc4n3C(C(F)(F)F)CC4)n2)cc1-n1cnc(C2CC2)c1 (stereo not shown) [Example 41, 5-(4-Cyclopropyl-1H-imidazol-1-yl)-2-fluoro-4-methyl-N-(6-(5-(trifluoromethyl)-6,7-di hydro-5H-pyrrolo[2,1-c][1,2,4]triazol-3-yl)pyridin-2-yl)benzamide] | 1 h | 83900 ng·h/mL | 83900 ng·h/mL | 2 h | 4 h | 17100 ng/mL | 8.11 |  | 
CCC[C@H]1CCc2nnc(-c3cccc(NC(=O)c4cc(-n5cnc(C6CC6)c5)c(C)cc4F)n3)n21 [Example 60, (S)-5-(4-Cyclopropyl-1H-imidazol-1-yl)-2-fluoro-4-methyl-N-(6-(5-propyl-6,7-dihydro-5H-pyrrolo[2,1-c][1,2,4]triazol-3-yl)pyridin-2-yl)benzamide] | 1 h | 29000 ng·h/mL | 29900 ng·h/mL | 1.3 h | 2.6 h | 9180 ng/mL | 8.18 |  | 
Cc1cc(F)c(C(=O)Nc2cccc(-c3nncn3C(C)C)n2)cc1-n1cnc(C2CC2)c1 [GS-4997, reference compound] |  |  |  |  |  |  |  | 40% | 35%

Now from value to compound, other results behind:

Peak time tmax [1] | AUC(0-t) [1] | AUC(0-inf) [1] | half-life [1] | MRT [1] | Cmax [1] | pIC50 (ASK1 kinase) | Compound | ALT(U/L) reduction rate (%) [2] | AST(U/L) reduction rate (%) [2]
1 h | 13600 ng·h/mL | 13900 ng·h/mL | 1.4 h | 2 h | 6580 ng/mL | 8.39 | Cc1cc(F)c(C(=O)Nc2cccc(-c3nnc4n3[C@@H](C)CC4)n2)cc1-n1cnc(C(C)(C)C)c1 [Example 16, (S)-5-(4-(tert-Butyl)-1H-imidazol-1-yl)-2-fluoro-4-methyl-N-(6-(5-methyl-6,7-dihydro-5H-pyrrolo[2,1-c][1,2,4]triazol-3-yl)pyridin-2-yl)benzamide] |  | 
1 h | 46400 ng·h/mL | 46400 ng·h/mL | 2.6 h | 3.9 h | 10900 ng/mL | 8.31 | Cc1cc(F)c(C(=O)Nc2cccc(-c3nnc4n3CC(C)(C)C4)n2)cc1-n1cnc(C2CC2)c1 [Example 32, 5-(4-Cyclopropyl-1H-imidazol-1-yl)-N-(6-(6,6-dimethyl-6,7-dihydro-5H-pyrrolo[2,1-c][1,2,4]triazol-3-yl)pyridin-2-yl)-2-fluoro-4-methylbenzamide] |  | 
1 h | 81100 ng·h/mL | 81200 ng·h/mL | 2.5 h | 4.4 h | 13500 ng/mL | 8.28 | Cc1cc(F)c(C(=O)Nc2cccc(-c3nnc4n3C[C@H](C)C4)n2)cc1-n1cnc(C2CC2)c1 [Example 34, (R)-5-(4-Cyclopropyl-1H-imidazol-1-yl)-2-fluoro-4-methyl-N-(6-(6-methyl-6,7-dihydro-5H-pyrrolo[2,1-c][1,2,4]triazol-3-yl)pyridin-2-yl)benzamide] |  | 
0.5 h | 129000 ng·h/mL | 130000 ng·h/mL | 2.8 h | 5.1 h | 19400 ng/mL | 8.39 | C=CC1CCc2nnc(-c3cccc(NC(=O)c4cc(-n5cnc(C6CC6)c5)c(C)cc4F)n3)n21 (stereo not shown) [Example 38, 5-(4-Cyclopropyl-1H-imidazol-1-yl)-2-fluoro-4-methyl-N-(6-(5-vinyl-6,7-dihydro-5H-pyrrolo[2,1-c][1,2,4]triazol-3-yl)pyridin-2-yl)benzamide] |  | 
1 h | 57200 ng·h/mL | 57700 ng·h/mL | 3.5 h | 5.8 h | 5890 ng/mL | 8.31 | Cc1cc(F)c(C(=O)Nc2cccc(-c3nnc4n3[C@H](CF)CC4)n2)cc1-n1cnc(C2CC2)c1 [Example 51, (S)-5-(4-Cyclopropyl-1H-imidazol-1-yl)-2-fluoro-N-(6-(5-(fluoromethyl)-6,7-dihydro-5H-pyrrolo[2,1-c][1,2,4]triazol-3-yl)pyridin-2-yl)-4-methylbenzamide] |  | 
1 h | 38600 ng·h/mL | 42500 ng·h/mL | 2.4 h | 3.6 h | 9940 ng/mL | 8.30 | CC[C@H]1CCc2nnc(-c3cccc(NC(=O)c4cc(-n5cnc(C6CC6)c5)c(C)cc4F)n3)n21 [Example 56, (S)-5-(4-Cyclopropyl-1H-imidazol-1-yl)-N-(6-(5-ethyl-6,7-dihydro-5H-pyrrolo[2,1-c][1,2,4]triazol-3-yl)pyridin-2-yl)-2-fluoro-4-methylbenzamide] |  | 
1 h | 19700 ng·h/mL | 20200 ng·h/mL | 1.4 h | 2.3 h | 7590 ng/mL | 8.54 | CCC[C@@H]1CCc2nnc(-c3cccc(NC(=O)c4cc(-n5cnc(C6CC6)c5)c(C)cc4F)n3)n21 [Example 59, (R)-5-(4-Cyclopropyl-1H-imidazol-1-yl)-2-fluoro-4-methyl-N-(6-(5-propyl-6,7-dihydro-5H-pyrrolo[2,1-c][1,2,4]triazol-3-yl)pyridin-2-yl)benzamide] |  | 
